Source: patent publication US10251395B2, “Substituted furano-/thienocycloalkylamino-2-pyrimidine derivatives and use thereof for controlling undesired plant growth” (Bayer CropScience Aktiengesellschaft, priority 2015, dated 2019)

Tests used:
Format in all cases: in vivo
Echinochloa crus-galli [1] = experiment: Post-emergence herbicidal effect; settings: 320 g/ha, assessed visually after about 3 weeks vs untreated controls
Method in brief: (§1)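 Sow in sandy loam; grow in greenhouse 2–3 wk; spray one-leaf plants with WP or EC suspension/emulsion (600–800 L/ha water, 0.2% wetter); hold ~3 wk under optimal conditions; rate visually vs untreated (0–100%).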

Matricaria inodora [2] = experiment: Post-emergence herbicidal effect; settings: assessed visually after about 3 weeks vs untreated controls
Method in brief: as §1

Polygonum convolvulus [3] = experiment: Post-emergence herbicidal effect; settings: 320 g/ha, assessed visually after about 3 weeks vs untreated controls
Method in brief: as §1

Setaria viridis [4] = experiment: Post-emergence herbicidal effect; settings: 320 g/ha, assessed visually after about 3 weeks vs untreated controls
Method in brief: as §1

Abutilon theophrasti = experiment: Post-emergence herbicidal effect; settings: 320 g/ha, assessed visually after about 3 weeks vs untreated controls
Method in brief: as §1

Amaranthus retroflexus [5] = experiment: Post-emergence herbicidal effect; settings: assessed visually after about 3 weeks vs untreated controls
Method in brief: as §1

Stellaria media [6] = experiment: Post-emergence herbicidal effect; settings: assessed visually after about 3 weeks vs untreated controls
Method in brief: as §1

Viola tricolor [7] = experiment: Post-emergence herbicidal effect; settings: assessed visually after about 3 weeks vs untreated controls
Method in brief: as §1

Veronica persica [8] = experiment: Post-emergence herbicidal effect; settings: assessed visually after about 3 weeks vs untreated controls
Method in brief: as §1

Alopecurus myosuroides = experiment: Pre-emergence herbicidal effect; settings: scored visually after 3 weeks
Method in brief: (§2)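 Pre-em soil-surface spray; sandy loam, seeds covered with soil. WP/EC, aq. suspension/emulsion, 600–800 L/ha, +0.2% wetting agent. GH 3 wk; visual % activity vs untreated (100% = dead).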

Echinochloa crus-galli [9] = experiment: Pre-emergence herbicidal effect; settings: scored visually after 3 weeks
Method in brief: as §2

Cyperus esculentus = experiment: Pre-emergence herbicidal effect; settings: Dosage 320 g/ha, scored visually after 3 weeks
Method in brief: as §2

Matricaria inodora [10] = experiment: Pre-emergence herbicidal effect; settings: scored visually after 3 weeks
Method in brief: as §2

Polygonum convolvulus [11] = experiment: Pre-emergence herbicidal effect; settings: Dosage 320 g/ha, scored visually after 3 weeks
Method in brief: as §2

Setaria viridis [12] = experiment: Pre-emergence herbicidal effect; settings: scored visually after 3 weeks
Method in brief: as §2

Amaranthus retroflexus [13] = experiment: Pre-emergence herbicidal effect; settings: scored visually after 3 weeks
Method in brief: as §2

Stellaria media [14] = experiment: Pre-emergence herbicidal effect; settings: scored visually after 3 weeks
Method in brief: as §2

Viola tricolor [15] = experiment: Pre-emergence herbicidal effect; settings: scored visually after 3 weeks
Method in brief: as §2

Veronica persica [16] = experiment: Pre-emergence herbicidal effect; settings: scored visually after 3 weeks
Method in brief: as §2

Lolium multiflorum = experiment: Pre-emergence herbicidal effect; settings: scored visually after 3 weeks
Method in brief: as §2

Ipomoea purpurea = experiment: Post-emergence herbicidal effect; settings: 320 g/ha, assessed visually after about 3 weeks vs untreated controls
Method in brief: as §1

Row | SMILES | post-emergence efficacy MATIN (Matricaria inodora [2]; 320 g/ha) | post-emergence efficacy AMARE (Amaranthus retroflexus [5]; 80 g/ha) | post-emergence efficacy AMARE (Amaranthus retroflexus [5]; 320 g/ha) | post-emergence efficacy STEME (Stellaria media [6]; 80 g/ha) | post-emergence efficacy STEME (Stellaria media [6]; 320 g/ha) | post-emergence efficacy VIOTR (Viola tricolor [7]; 80 g/ha) | post-emergence efficacy VIOTR (Viola tricolor [7]; 320 g/ha) | post-emergence efficacy VERPE (Veronica persica [8]; 80 g/ha) | post-emergence efficacy VERPE (Veronica persica [8]; 320 g/ha) | ALOMY pre-emergence efficacy (herbicidal activity) (Alopecurus myosuroides; Dosage 80 g/ha) | ALOMY pre-emergence efficacy (herbicidal activity) (Alopecurus myosuroides; Dosage 320 g/ha) | ECHCG pre-emergence efficacy (herbicidal activity) (Echinochloa crus-galli [9]; Dosage 320 g/ha) | CYPES pre-emergence efficacy (herbicidal activity) (Cyperus esculentus) | MATIN pre-emergence efficacy (herbicidal activity) (Matricaria inodora [10]; Dosage 80 g/ha) | MATIN pre-emergence efficacy (herbicidal activity) (Matricaria inodora [10]; Dosage 320 g/ha) | POLCO pre-emergence efficacy (herbicidal activity) (Polygonum convolvulus [11]) | SETVI pre-emergence efficacy (herbicidal activity) (Setaria viridis [12]; Dosage 80 g/ha) | SETVI pre-emergence efficacy (herbicidal activity) (Setaria viridis [12]; Dosage 320 g/ha) | AMARE pre-emergence efficacy (herbicidal activity) (Amaranthus retroflexus [13]; Dosage 80 g/ha) | AMARE pre-emergence efficacy (herbicidal activity) (Amaranthus retroflexus [13]; Dosage 320 g/ha) | also measured
1 | Cc1cc2c(s1)CCCC2Nc1nc(N)c([S+](C)[O-])c(C(F)F)n1 (racemic) [compound 264] | 90% | 90% | 90% | 100% | 100% | 90% | 90% | 90% | 90% | 60% | 60% | 100% | 100% | 90% | 100% | 100% | 80% | 90% | 100% | 100% | post-emergence efficacy ECHCG (Echinochloa crus-galli [1]): 90%; post-emergence efficacy MATIN (Matricaria inodora [2]; 80 g/ha): 80%; post-emergence efficacy POLCO (Polygonum convolvulus [3]): 80%; post-emergence efficacy SETVI (Setaria viridis [4]): 80%; post-emergence efficacy ABUTH (Abutilon theophrasti): 90%; STEME pre-emergence efficacy (herbicidal activity) (Stellaria media [14]; Dosage 80 g/ha): 100%; STEME pre-emergence efficacy (herbicidal activity) (Stellaria media [14]; Dosage 320 g/ha): 100%; VIOTR pre-emergence efficacy (herbicidal activity) (Viola tricolor [15]; Dosage 80 g/ha): 100%; VIOTR pre-emergence efficacy (herbicidal activity) (Viola tricolor [15]; Dosage 320 g/ha): 100%; VERPE pre-emergence efficacy (herbicidal activity) (Veronica persica [16]; Dosage 80 g/ha): 100%; VERPE pre-emergence efficacy (herbicidal activity) (Veronica persica [16]; Dosage 320 g/ha): 100%; LOLMU pre-emergence efficacy (herbicidal activity) (Lolium multiflorum; Dosage 320 g/ha): 60%
2 | N#Cc1cc2c(s1)C(Nc1ncc(C(F)(F)F)c(N)n1)CCC2 (racemic) [compound 285] | 80% | 100% | 100% | 90% | 100% | 80% | 100% | 60% | 80% | 50% | 60% | 100% | 50% | 100% | 100% | 100% | 70% | 100% | 100% | 100% | post-emergence efficacy PHBPU (Ipomoea purpurea): 60%; ECHCG pre-emergence efficacy (herbicidal activity) (Echinochloa crus-galli [9]; Dosage 80 g/ha): 60%; STEME pre-emergence efficacy (herbicidal activity) (Stellaria media [14]; Dosage 80 g/ha): 100%; STEME pre-emergence efficacy (herbicidal activity) (Stellaria media [14]; Dosage 320 g/ha): 100%; VIOTR pre-emergence efficacy (herbicidal activity) (Viola tricolor [15]; Dosage 80 g/ha): 100%; VIOTR pre-emergence efficacy (herbicidal activity) (Viola tricolor [15]; Dosage 320 g/ha): 100%; VERPE pre-emergence efficacy (herbicidal activity) (Veronica persica [16]; Dosage 80 g/ha): 100%; VERPE pre-emergence efficacy (herbicidal activity) (Veronica persica [16]; Dosage 320 g/ha): 100%; LOLMU pre-emergence efficacy (herbicidal activity) (Lolium multiflorum; Dosage 80 g/ha): 80%; LOLMU pre-emergence efficacy (herbicidal activity) (Lolium multiflorum; Dosage 320 g/ha): 90%
